Legend:
[1] = test system: Head and Neck Cancer; experiment: Clinical study of EPT with intralesional bleomycin for head and neck cancers; type: in vivo, humans; parameters: key to Response Status: Complete Response (CR): Disappearance of all evidence of tumor as determined by physical examination, and/or biopsy.; Partial Response (PR): 50% or greater reduction in tumor volume.; No Response (NR): less than 50% reduction in tumor volume
Experimental: All of the following patients were treated with bleomycin intratumoral injection and needle arrays of different diameters with six needles. The voltage was set to achieve a nominal electric field strength of 1300 V/cm (the needle array diameter was multiplied by 1300 to give the voltage the generator was set at). The pulse length was 100 μs.
The study was designed as a single center feasibility clinical study in which the efficacy of the EPT procedure in combination with intralesional bleomycin was compared to that for traditional surgery, radiation, and/or systemic chemotherapy. Approximately 50 study subjects were enrolled in the study. All study subjects were assessed prior to treatment by examination and biopsy. Postoperative assessment of study subjects was weekly for 4-6 weeks, and monthly thereafter for a total of 12 months. Approximately 8 to 12 weeks following therapy, a biopsy of the tumor site was performed. Use of CT or MRI scans was utilized in accordance to standard medical follow-up evaluation of HNC subjects.
Tumor evaluation includes measuring the tumor diameter (in centimeters) and estimating its volume (in cubic centimeters). Prior to intratumoral administration of bleomycin sulfate, the tumor site is anesthetized with 1% lidocaine (xylocaine) and 1:100,000 epinephrine. The concentration of bleomycin sulfate injected is 4 units per milliliter, up to a maximum dose of 5 units per tumor. If more than one tumor per subject is treated, a total of 20 units per subject should not be exceeded. The dose of bleomycin administered is to be 1 unit/cm^3 of calculated tumor volume. Approximately ten minutes subsequent to the injection of bleomycin sulfate, the applicator is placed on the tumor and electrical pulses initiated. Each application or an initiation of electrical pulses is referred to as a sequence. The use of EPT is not a contraindication to any subsequent palliative treatment required by the subject.
In this study, success was defined as significant tumor regression in a period of 16 weeks or less without major side effects seen with traditional therapy. There are three possible response outcomes:
Complete Response (CR): Disappearance of all evidence of tumor as determined by physical examination, and/or biopsy. • Partial Response (PR): 50% or greater reduction in tumor volume. • No Response (NR): less than 50% reduction in tumor volume.
If the tumor increases (25% tumor volume) in size, other therapy, if indicated, was instituted per subject's desire.

[2] = test system: Cutaneous and Subcutaneous Cancer; experiment: Clinical studies using bleomycin sulfate and EPT, cutaneous and subcutaneous cancer; type: in vivo, humans
[3] = test system: Panc-3; experiment: EPT of Panc-3 with neocarcinostatin, pre- and post-pulse injection; type: in vivo, nude mice
Source text: The Panc-3 and NSCLC models were utilized with the drug neocarcinostatin (NCS) following the same procedures as outlined above. […] It was believed that due to the low isoelectric point of NCS, electrostatic interaction prevented the drug from entering the tumor cell. Therefore, the experiment was repeated by pulsing first and injecting NCS post-pulse.

[4] = Adenocarcinoma, 2 patients, 2 lesions, IT 2 to 8 Units
[5] = Squamous Cell, 7 patients, 7 lesions, IT 1 to 16 Units
[6] = enrollment start 01/20/95, Basal Cell, 18 patients, 54 lesions, IT 0.5 to 3 Units
[7] = enrollment start 01/20/95, Kaposi Sarcoma, 1 patient, 4 lesions, IT 1 to 2 Units
[8] = enrollment start 01/20/95, Met. Melanoma, 10 patients, 84 lesions, IT 0.2 to 2 Units
[9] = enrollment start 01/20/95, Squamous Cell, 1 patient, 1 lesion, IT 1.5 Units
[10] = enrollment start 01/20/95, Summary, 30 patients, 146 lesions
[11] = enrollment start 02/18/94, Basal Cell, 2 patients, 6 lesions, IV 22 to 23 Units
[12] = enrollment start 02/18/94, Met. Breast Adenocarcinoma, 1 patient, 2 lesions, IV 17 Units
[13] = enrollment start 02/18/94, Met. Melanoma, 3 patients, 10 lesions, IV 19 to 23 Units
[14] = enrollment start 08/01/96, Basal Cell, 7 patients, 8 lesions, IT 0.8 to 0.64 Units
[15] = enrollment start 08/01/96, Summary, 7 patients, 8 lesions

Molecule: bleomycin sulfate
- Tumor Response CR % [1, 4]: 0%
- Tumor Response NR % [1, 4]: 100%
- Tumor Response PR % [1, 4]: 100%
- Tumor Response CR % [1, 5]: 43%
- Tumor Response NR % [1, 5]: 29%
- Tumor Response PR % [1, 5]: 29%
- Response Status ([1]; Subject 1/J-S, first response (week 2)): PR (Partial Response (PR): 50% or greater reduction in tumor volume.)
- Response Status ([1]; Subject 1/J-S, second response (week 8)): CR
- Time to Response (Week) ([1]; Subject 1/J-S, to CR): 8 Week
- Time to Response (Week) ([1]; Subject 1/J-S, to PR): 2 Week
- Response Status ([1]; Subject 2/G-C): PR (Partial Response (PR): 50% or greater reduction in tumor volume.)
- Time to Response (Week) ([1]; Subject 2/G-C): 4 Week
- Response Status ([1]; Subject 3/L-O): CR
- Time to Response (Week) ([1]; Subject 3/L-O): 3 Week
- Response Status ([1]; Subject 4/G-R, first response (week 4)): PR (Partial Response (PR): 50% or greater reduction in tumor volume.)
- Response Status ([1]; Subject 4/G-R, second response (week 9)): CR
- Time to Response (Week) ([1]; Subject 4/G-R, to CR): 9 Week
- Time to Response (Week) ([1]; Subject 4/G-R, to PR): 4 Week
- Response Status ([1]; Subject 5/R-H, segmented treatment): NR** (No Response (NR): less than 50% reduction in tumor volume.)
- Response Status ([1]; Subject 6/C-B): PR (Partial Response (PR): 50% or greater reduction in tumor volume.)
- Time to Response (Week) ([1]; Subject 6/C-B): 2 Week
- Response Status ([1]; Subject 7/C-J, segmented treatment): NR** (No Response (NR): less than 50% reduction in tumor volume.)
- Response Status ([1]; Subject 8/L-J): PR (Partial Response (PR): 50% or greater reduction in tumor volume.)
- Time to Response (Week) ([1]; Subject 8/L-J): 4 Week
- Time to Response (Week) ([1]; Subject 9/J-T): 7 Week
- Response Status ([1]; Subject 9/J-T, segmented treatment): PR** (Partial Response (PR): 50% or greater reduction in tumor volume.)
- subjects with a complete response ([1]; Subject No. 1, 3 and 4, of 9 subjects): Three
- subjects with a partial response ([1]; Subject No. 2, 6, 8 and 9, of 9 subjects): four
- subjects with no response ([1]; Subject No. 5 and 7, of 9 subjects): two
- Tumor Response CR % ([1]; Summary, 9 patients, 9 lesions): 33%
- Tumor Response NR % ([1]; Summary, 9 patients, 9 lesions): 22%
- Tumor Response PR % ([1]; Summary, 9 patients, 9 lesions): 44%
- subjects who died prior to reaching week 12 ([1]; due to progressive disease or complications unrelated to study treatment (Subject No. 2, 5 and 7)): Three
- Tumor Response CR % [2, 6]: 94%
- Tumor Response NR % [2, 6]: 0%
- Tumor Response PR % [2, 6]: 9%
- Tumor Response CR % [2, 7]: 100%
- Tumor Response NR % [2, 7]: 0%
- Tumor Response PR % [2, 7]: 0%
- Tumor Response CR % [2, 8]: 91%
- Tumor Response NR % [2, 8]: 2%
- Tumor Response PR % [2, 8]: 9%
- Tumor Response CR % [2, 9]: 0%
- Tumor Response NR % [2, 9]: 0%
- Tumor Response PR % [2, 9]: 100%
- Tumor Response CR % [2, 10]: 89%
- Tumor Response NR % [2, 10]: 1%
- Tumor Response PR % [2, 10]: 10%
- Tumor Response CR % [2, 11]: 17%
- Tumor Response NR % [2, 11]: 0%
- Tumor Response PR % [2, 11]: 83%
- Tumor Response CR % [2, 12]: 100%
- Tumor Response NR % [2, 12]: 0%
- Tumor Response PR % [2, 12]: 0%
- Tumor Response CR % [2, 13]: 30%
- Tumor Response NR % [2, 13]: 50%
- Tumor Response PR % [2, 13]: 20%
- Tumor Response CR % [2, 14]: 67%
- Tumor Response NR % [2, 14]: 0%
- Tumor Response PR % [2, 14]: 33%
- Tumor Response CR % [2, 15]: 67%
- Tumor Response NR % [2, 15]: 0%
- Tumor Response PR % [2, 15]: 33%

B1: neocarcinostatin (protein, UniProt P0A3R9 35-147, looked up)
Neocarzinostatin: AAPTATVTPSSGLSDGTVVKVAGAGLQAGTAYDVGQCAWVDTGVLACNPADFSSVTADANGSASTSLTVRRSFEGFLFDGTRWGTVDCTTAACQVGLSDAAGNGPEGVAISFN
- post-pulse versus pre-pulse administration ([3]; comparison of FIGS. 11a and 11b): more effective than pre-pulse administration
- final vs initial tumor volume ([3]; post-pulse injection, day 13, mice ID 1, 2, 4 and 7 of 7, appeared to be due to edema): an increase in tumor volume was observed
- tumor volume ([3]; post-pulse injection, day 23, separate group of 5 mice): all mice showed a marked reduction in tumor volume
- reduction of tumor size ([3]; pre-pulse dosing): not effective in reducing tumor size at all

From patent US7412284B2, “Apparatus for electroporation mediated delivery for drugs and genes” (Genetronics, Inc., priority 1997, dated 2008)
